Earlier results on one compound are cited in US7612036B2, “Peptoid compounds” (University of Wollongong, priority 2001, dated 2009).

The conditions of the data set: cited from earlier work.

With `Cl.Cl.NCC(O)CC1NC(=O)C(N)Cc2cc(ccc2O)-c2ccc(O)c(c2)C(O)C(C(=O)O)NC1=O` (stereo not shown) [Biphenomycin A], the toxicity in mice result is “low toxicity”.
